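Each compound was tested at five concentrations against cells in 96-well plates for 48 hours. At the GI50, growth is halved. TGI is the concentration that stops growth completely.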
What was measured:
Assay in all cases: NCI-60 cell line screen, 48 h
MALME-3M melanoma = test system: MALME-3M melanoma
A549 NSCLC = test system: A549 NSCLC
SNB-19 CNS = test system: SNB-19 CNS
OVCAR-5 ovarian = test system: OVCAR-5 ovarian
TK-10 renal = test system: TK-10 renal
RXF 393 renal = test system: RXF 393 renal
SK-OV-3 ovarian = test system: SK-OV-3 ovarian
UO-31 renal = test system: UO-31 renal
ACHN renal = test system: ACHN renal
CCRF-CEM leukemia = test system: CCRF-CEM leukemia
SF-539 CNS = test system: SF-539 CNS
HL-60(TB) leukemia = test system: HL-60(TB) leukemia
IGROV1 ovarian = test system: IGROV1 ovarian
786-0 renal = test system: 786-0 renal
HCT-116 colon = test system: HCT-116 colon
HOP-92 NSCLC = test system: HOP-92 NSCLC
SN12C renal = test system: SN12C renal
MCF7 breast = test system: MCF7 breast
EKVX NSCLC = test system: EKVX NSCLC
LOX IMVI melanoma = test system: LOX IMVI melanoma
BT-549 breast = test system: BT-549 breast
SF-268 CNS = test system: SF-268 CNS
SF-295 CNS = test system: SF-295 CNS
NCI-H226 lung = test system: NCI-H226 lung
MDA-N = test system: MDA-N
K-562 leukemia = test system: K-562 leukemia
SK-MEL-28 melanoma = test system: SK-MEL-28 melanoma
NCI-H460 lung = test system: NCI-H460 lung
U251 CNS = test system: U251 CNS
A498 renal = test system: A498 renal
MDA-MB-231 breast = test system: MDA-MB-231 breast
DU-145 prostate = test system: DU-145 prostate
HCC-2998 colon = test system: HCC-2998 colon
MDA-MB-435 = test system: MDA-MB-435
HT29 colon = test system: HT29 colon
MOLT-4 leukemia = test system: MOLT-4 leukemia
UACC-257 melanoma = test system: UACC-257 melanoma
HS 578T breast = test system: HS 578T breast
CAKI-1 renal = test system: CAKI-1 renal
M14 melanoma = test system: M14 melanoma
RPMI-8226 leukemia = test system: RPMI-8226 leukemia
SNB-75 CNS = test system: SNB-75 CNS
SW-620 colon = test system: SW-620 colon
OVCAR-8 ovarian = test system: OVCAR-8 ovarian
T-47D breast = test system: T-47D breast
SR leukemia = test system: SR leukemia
OVCAR-4 ovarian = test system: OVCAR-4 ovarian
NCI/ADR-RES ovarian = test system: NCI/ADR-RES ovarian
OVCAR-3 ovarian = test system: OVCAR-3 ovarian
HOP-62 NSCLC = test system: HOP-62 NSCLC
PC-3 prostate = test system: PC-3 prostate
SK-MEL-5 melanoma = test system: SK-MEL-5 melanoma
UACC-62 melanoma = test system: UACC-62 melanoma
HCT-15 colon = test system: HCT-15 colon
NCI-H23 lung = test system: NCI-H23 lung
COLO 205 colon = test system: COLO 205 colon
KM12 colon = test system: KM12 colon
SK-MEL-2 melanoma = test system: SK-MEL-2 melanoma
NCI-H522 lung = test system: NCI-H522 lung

COC1=C(OC)[C@]2(OC)c3c(O)c(OC)c4c(c3O[C@@]23O[C@@H](c2ccccc2)CC=C3C1=O)[C@@H](O)C[C@H](c1ccccc1)O4
GI50 (MALME-3M melanoma): 377 nM | TGI (MALME-3M melanoma): 1330 nM | GI50 (A549 NSCLC): 2010 nM | TGI (A549 NSCLC): 4390 nM | GI50 (SNB-19 CNS): 2110 nM | TGI (SNB-19 CNS): 9690 nM | GI50 (OVCAR-5 ovarian): 1640 nM | TGI (OVCAR-5 ovarian): 3180 nM | GI50 (TK-10 renal): 251 nM | TGI (TK-10 renal): 718 nM | GI50 (RXF 393 renal): 199 nM | TGI (RXF 393 renal): 406 nM | GI50 (SK-OV-3 ovarian): 1760 nM | TGI (SK-OV-3 ovarian): 3450 nM | GI50 (UO-31 renal): 1330 nM | TGI (UO-31 renal): 2600 nM | GI50 (ACHN renal): 819 nM | TGI (ACHN renal): 2060 nM | GI50 (CCRF-CEM leukemia): 54.5 nM | TGI (CCRF-CEM leukemia): 208 nM | GI50 (SF-539 CNS): 934 nM | TGI (SF-539 CNS): 2500 nM | GI50 (HL-60(TB) leukemia): 177 nM | TGI (HL-60(TB) leukemia): 627 nM | GI50 (IGROV1 ovarian): 932 nM | TGI (IGROV1 ovarian): 2440 nM | GI50 (786-0 renal): 171 nM | TGI (786-0 renal): 339 nM | GI50 (HCT-116 colon): 183 nM | TGI (HCT-116 colon): 380 nM | GI50 (HOP-92 NSCLC): 244 nM | TGI (HOP-92 NSCLC): 641 nM | GI50 (SN12C renal): 270 nM | TGI (SN12C renal): 893 nM | GI50 (MCF7 breast): 321 nM | TGI (MCF7 breast): 1670 nM | GI50 (EKVX NSCLC): 1690 nM | TGI (EKVX NSCLC): 3080 nM | GI50 (LOX IMVI melanoma): 157 nM | TGI (LOX IMVI melanoma): 377 nM | GI50 (BT-549 breast): 394 nM | TGI (BT-549 breast): 1210 nM | GI50 (SF-268 CNS): 311 nM | TGI (SF-268 CNS): 1350 nM | GI50 (SF-295 CNS): 1780 nM | TGI (SF-295 CNS): 3570 nM | GI50 (NCI-H226 lung): 286 nM | TGI (NCI-H226 lung): 1460 nM | GI50 (MDA-N): 196 nM | TGI (MDA-N): 424 nM | GI50 (K-562 leukemia): 97.2 nM | TGI (K-562 leukemia): 742 nM | GI50 (SK-MEL-28 melanoma): 318 nM | TGI (SK-MEL-28 melanoma): 1000 nM | GI50 (NCI-H460 lung): 1420 nM | TGI (NCI-H460 lung): 2970 nM | GI50 (U251 CNS): 1800 nM | TGI (U251 CNS): 3550 nM | GI50 (A498 renal): 348 nM | TGI (A498 renal): 2350 nM | GI50 (MDA-MB-231 breast): 234 nM | TGI (MDA-MB-231 breast): 911 nM | GI50 (DU-145 prostate): 2230 nM | TGI (DU-145 prostate): 4560 nM | GI50 (HCC-2998 colon): 564 nM | TGI (HCC-2998 colon): 1960 nM | GI50 (MDA-MB-435): 270 nM | TGI (MDA-MB-435): 870 nM | GI50 (HT29 colon): 224 nM | TGI (HT29 colon): 565 nM | GI50 (MOLT-4 leukemia): 85.2 nM | TGI (MOLT-4 leukemia): 354 nM | GI50 (UACC-257 melanoma): 1010 nM | TGI (UACC-257 melanoma): 2360 nM | GI50 (HS 578T breast): 1760 nM | TGI (HS 578T breast): 5380 nM | GI50 (CAKI-1 renal): 1340 nM | TGI (CAKI-1 renal): 2930 nM | GI50 (M14 melanoma): 358 nM | TGI (M14 melanoma): 1170 nM | GI50 (RPMI-8226 leukemia): 71.4 nM | TGI (RPMI-8226 leukemia): 597 nM | GI50 (SNB-75 CNS): 693 nM | TGI (SNB-75 CNS): 1980 nM | GI50 (SW-620 colon): 173 nM | TGI (SW-620 colon): 334 nM | GI50 (OVCAR-8 ovarian): 181 nM | TGI (OVCAR-8 ovarian): 350 nM | GI50 (T-47D breast): 224 nM | TGI (T-47D breast): 621 nM | GI50 (SR leukemia): 229 nM | TGI (SR leukemia): 612 nM | GI50 (OVCAR-4 ovarian): 1480 nM | TGI (OVCAR-4 ovarian): 3380 nM | GI50 (NCI/ADR-RES ovarian): 688 nM | TGI (NCI/ADR-RES ovarian): 3390 nM | GI50 (OVCAR-3 ovarian): 204 nM | TGI (OVCAR-3 ovarian): 517 nM | GI50 (HOP-62 NSCLC): 1540 nM | TGI (HOP-62 NSCLC): 3200 nM | GI50 (PC-3 prostate): 466 nM | TGI (PC-3 prostate): 1030 nM | GI50 (SK-MEL-5 melanoma): 1320 nM | TGI (SK-MEL-5 melanoma): 2600 nM | GI50 (UACC-62 melanoma): 326 nM | TGI (UACC-62 melanoma): 1300 nM | GI50 (HCT-15 colon): 157 nM | TGI (HCT-15 colon): 340 nM

O=c1cc(-c2cccc(OCc3ccccc3)c2)[nH]c2cc3c(cc12)OCO3
TGI (MALME-3M melanoma): > 100000 nM | TGI (A549 NSCLC): > 22700 nM | TGI (SNB-19 CNS): 14900 nM | TGI (OVCAR-5 ovarian): > 100000 nM | TGI (TK-10 renal): 24700 nM | TGI (RXF 393 renal): 8150 nM | TGI (SK-OV-3 ovarian): 4230 nM | TGI (UO-31 renal): 16000 nM | TGI (NCI-H23 lung): 15000 nM | TGI (ACHN renal): 64300 nM | TGI (CCRF-CEM leukemia): 481 nM | TGI (SF-539 CNS): 564 nM | TGI (HL-60(TB) leukemia): 412 nM | TGI (IGROV1 ovarian): > 100000 nM | TGI (786-0 renal): 3980 nM | TGI (HCT-116 colon): > 100000 nM | TGI (HOP-92 NSCLC): 18600 nM | TGI (COLO 205 colon): > 22700 nM | TGI (SN12C renal): > 22100 nM | TGI (KM12 colon): > 100000 nM | TGI (MCF7 breast): > 100000 nM | TGI (EKVX NSCLC): > 100000 nM | TGI (LOX IMVI melanoma): > 100000 nM | TGI (BT-549 breast): > 100000 nM | TGI (SK-MEL-2 melanoma): 5880 nM | TGI (SF-268 CNS): > 70300 nM | TGI (SF-295 CNS): 14400 nM | TGI (NCI-H522 lung): 1420 nM | TGI (NCI-H226 lung): 7790 nM | TGI (MDA-N): 417 nM | TGI (K-562 leukemia): > 100000 nM | TGI (SK-MEL-28 melanoma): > 100000 nM | TGI (NCI-H460 lung): 11200 nM | TGI (U251 CNS): 1840 nM | TGI (A498 renal): 3160 nM | TGI (MDA-MB-231 breast): 9030 nM | TGI (DU-145 prostate): > 100000 nM | TGI (HCC-2998 colon): 751 nM | TGI (MDA-MB-435): 360 nM | TGI (HT29 colon): > 97300 nM | TGI (MOLT-4 leukemia): > 100000 nM | TGI (UACC-257 melanoma): > 100000 nM | TGI (HS 578T breast): 3020 nM | TGI (CAKI-1 renal): > 50800 nM | TGI (M14 melanoma): > 84500 nM | TGI (RPMI-8226 leukemia): 766 nM | TGI (SW-620 colon): > 100000 nM | TGI (OVCAR-8 ovarian): 9870 nM | TGI (T-47D breast): > 100000 nM | TGI (SR leukemia): > 100000 nM | TGI (OVCAR-4 ovarian): > 27800 nM | TGI (NCI/ADR-RES ovarian): 462 nM | TGI (OVCAR-3 ovarian): 3580 nM | TGI (HOP-62 NSCLC): 9980 nM | TGI (PC-3 prostate): > 100000 nM | TGI (SK-MEL-5 melanoma): > 100000 nM | TGI (UACC-62 melanoma): 12300 nM
